Conditions in all cases: read-out: IC50
Assay [1] deals with T1, Peptidyl-prolyl cis-trans isomerase FKBP4 (Homo sapiens, UniProt Q02790).
T1 sequence (Q02790 whole entry): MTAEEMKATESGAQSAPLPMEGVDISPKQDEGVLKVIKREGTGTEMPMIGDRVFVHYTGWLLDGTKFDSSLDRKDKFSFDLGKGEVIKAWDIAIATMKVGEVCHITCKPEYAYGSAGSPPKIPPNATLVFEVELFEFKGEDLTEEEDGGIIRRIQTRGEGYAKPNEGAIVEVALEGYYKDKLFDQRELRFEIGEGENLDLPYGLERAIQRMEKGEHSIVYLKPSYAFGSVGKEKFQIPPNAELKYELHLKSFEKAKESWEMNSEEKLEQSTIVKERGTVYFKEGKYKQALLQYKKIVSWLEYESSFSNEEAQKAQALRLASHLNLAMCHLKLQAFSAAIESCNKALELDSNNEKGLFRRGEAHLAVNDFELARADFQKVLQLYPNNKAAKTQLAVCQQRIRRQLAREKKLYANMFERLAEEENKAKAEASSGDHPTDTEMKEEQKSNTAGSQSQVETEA
The assay is described as follows: Binding affinity to FKBP52 FK1 domain by competitive fluorescence polarization assay. (In general: In fluorescence polarisation assays a small probe gives low polarisation when free and higher when bound to something large.)

Assay [2] deals with T2, Peptidyl-prolyl cis-trans isomerase FKBP5 (Homo sapiens, UniProt Q13451).
T2 sequence (Q13451 whole entry): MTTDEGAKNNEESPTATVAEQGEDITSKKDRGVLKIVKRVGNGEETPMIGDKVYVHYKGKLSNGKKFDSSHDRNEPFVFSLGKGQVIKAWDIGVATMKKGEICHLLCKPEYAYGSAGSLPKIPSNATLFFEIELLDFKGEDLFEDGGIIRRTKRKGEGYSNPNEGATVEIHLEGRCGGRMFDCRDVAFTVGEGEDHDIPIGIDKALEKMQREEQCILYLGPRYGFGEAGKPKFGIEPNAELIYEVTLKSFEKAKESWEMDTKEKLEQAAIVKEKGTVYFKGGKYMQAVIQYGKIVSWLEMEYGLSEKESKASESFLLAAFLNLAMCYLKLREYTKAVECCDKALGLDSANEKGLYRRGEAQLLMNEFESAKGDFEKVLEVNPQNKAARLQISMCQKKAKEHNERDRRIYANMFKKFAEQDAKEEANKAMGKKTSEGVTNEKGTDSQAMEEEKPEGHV
Description: Binding affinity to FKBP51 FK1 domain by competitive fluorescence polarization assay.

Assay [3] has as its target Peptidyl-prolyl cis-trans isomerase FKBP1A (Homo sapiens, UniProt P62942). Description: Binding affinity to FKBP12 by competitive fluorescence polarization assay.

Structures are written as SMILES. Bounds are passed on as bounds.

Broadly, the IC50 is the concentration at which inhibition is half-maximal.

Peptidyl-prolyl cis-trans isomerase FKBP1A, sequence (P62942 whole entry): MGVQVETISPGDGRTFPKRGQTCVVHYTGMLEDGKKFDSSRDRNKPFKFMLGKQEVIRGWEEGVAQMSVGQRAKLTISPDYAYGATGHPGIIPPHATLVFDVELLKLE

For the compound `COc1ccc(CC[C@@H](OC(=O)[C@@H]2CCCCN2S(=O)(=O)c2cc(Cl)cc(Cl)c2)c2cccc(OCCN3CCOCC3)c2)cc1OC`, the IC50 in assay [1], in assay [2] and in assay [3] was above 50 µM throughout.
As to `COc1ccc(CC[C@@H](OC(=O)[C@@H]2CCCCN2S(=O)(=O)c2cccc(C#N)c2)c2cccc(OCC(=O)O)c2)cc1OC`, the results for the concentration for half-maximal inhibition (IC50) in assay [1], in assay [2] and in assay [3] were 69.9 µM, 28.5 µM and 3.8 µM, respectively.
The corresponding values for `COc1ccc(OCCOC(=O)[C@@H]2CCCCN2S(=O)(=O)c2ccc3ncsc3c2)cc1OC` are above 100 µM, 66.3 µM and 0.2 µM.
The corresponding values for `COC(=O)c1cc(C(=O)OC)cc(S(=O)(=O)N2CCCC[C@H]2C(=O)O[C@H](CCc2ccc(OC)c(OC)c2)c2cccc(OCC(=O)O)c2)c1` are above 100 µM, above 100 µM and 4.5 µM.
The matching figures for `COc1ccc(CC[C@@H](OC(=O)[C@@H]2CCCCN2S(=O)(=O)c2cc(C(F)(F)F)cc(C(F)(F)F)c2)c2cccc(OCC(=O)O)c2)cc1OC`: above 100 µM, above 100 µM and 5.1 µM.
For the compound `COc1ccc(CC[C@@H](OC(=O)[C@@H]2CCCCN2S(=O)(=O)c2ccc(Cl)c(Cl)c2)c2cccc(OCC(=O)O)c2)cc1OC`, the IC50 is above 100 µM in assay [1], above 100 µM in assay [2] and 6.1 µM in assay [3].
For the compound `COc1ccc(CC[C@@H](OC(=O)[C@@H]2CCCCN2S(=O)(=O)c2cc(Cl)c(O)c(Cl)c2)c2cccc(OCC(=O)O)c2)cc1OC`, the results for the half-inhibitory concentration (IC50) in assay [1], in assay [2] and in assay [3] were 20.3 µM, 6.2 µM and 0.67 µM, respectively.
`COc1ccc(CC[C@@H](OC(=O)[C@@H]2CCCCN2S(=O)(=O)c2cccc(N)c2)c2cccc(OCC(=O)O)c2)cc1OC`: the IC50 in assay [1] was above 100 µM; in assay [2], 45.4 µM; in assay [3] it was 1.9 µM.
As for `COc1ccc(CC[C@@H](OC(=O)[C@@H]2CCCCN2S(=O)(=O)c2cc(N)c3c(c2)CCO3)c2cccc(OCC(=O)O)c2)cc1OC`, the IC50 in assay [1] is above 100 µM; in assay [2], above 100 µM; in assay [3] it was 2.57 µM.

(Values after ChEMBL document CHEMBL2057077, “Exploration of pipecolate sulfonamides as binders of the FK506-binding proteins 51 and 52” (J Med Chem, 2012).)
